Results published in patent publication US10653655B2, “Composition for preventing or improving peripheral neuropathy” (AJINOMOTO CO., INC., priority 2014, dated 2020).

How the values were obtained:
[1] = system: peripheral neuropathic pain in an animal model of anticancer agent or diabetes; conditions: at the maximum concentration of L-serine; WO 2011/111355; cited from earlier work
[2] = system: rat having hypersensitive pain induced by anticancer agent (Oxaliplatin); assay: Von Frey test in rat having hypersensitive pain induced by anticancer agent (Experimental Example 1); assay type: in vivo; conditions: SD rat, Oxaliplatin 5 mg/kg i.p. 5 days; oral once per day 28 days; L-serine 10.5 mg/kg, EPA 300 mg/kg equivalent; 22 and 28 days; stimulation intensity 4 g, 8 g, 15 g
Experimental: 6-Week-old male SD rats were divided into 5 groups (1A group-1E group, N=6) based on the body weight, an anticancer agent (Oxaliplatin 5 mg/body weight kg) was intraperitoneally administered to 4 groups other than 1A group for 5 days, and saline was intraperitoneally administered to 1A group for 5 days. In addition, the following evaluation liquid was orally ingested once per day in the time zone of 4 to 5 hours after start of the light period for 28 days simultaneously from the start of the intraperitoneal administration. As eicosapentaenoic acid administered to 1D group, 1E group, fish oil corresponding to 300 mg/body weight kg (equivalent to 429 mg/body weight kg as n-3 fatty acid) was used. Evaluation Liquids for 1A Group-1E Group: • 1A group: distilled water • 1B group: distilled water • 1C group: L-serine 10.5 mg/body weight kg • 1D group: eicosapentaenoic acid 300 mg/body weight kg equivalent • 1E group: L-serine 10.5 mg/body weight kg+eicosapentaenoic acid 300 mg/body weight kg equivalent Von Frey test was performed at 22 days and 28 days after the start of the anticancer agent administration. […] The ratio (%) of the number of pain response relative to the number (10 times) of filament pressing was calculated at each stimulation intensity.

[3] = system: rat having hypersensitive pain induced by gonitis inducing agent (Zymosan); assay: Gastrocnemius weight of right and left foot in Zymosan gonitis rat (Experimental Example 2); assay type: in vivo; conditions: 21 days after Zymosan, rank among 2C-2E groups
Experimental: (§1) 8-Week-old male SD rats were divided into 5 groups (2A group-2E group, N=7) based on the body weight, and 2 mg of a gonitis inducing agent (Zymosan) was administered to the right knee cartilage part in 4 groups other than 2A group. In addition, the following evaluation liquid was orally ingested once per day in the time zone of 4 to 5 hours after start of the light period for 21 days from the administration of the gonitis inducing agent to the right knee. As eicosapentaenoic acid administered to 2D group, 2E group, fish oil corresponding to 300 mg/body weight kg (equivalent to 429 mg/body weight kg as n-3 fatty acid) was used.
(§2) Evaluation Liquids for 2A Group-2E Group: • 2A group: distilled water • 2B group: distilled water • 2C group: L-serine 10.5 mg/body weight kg • 2D group: eicosapentaenoic acid 300 mg/body weight kg equivalent • 2E group: L-serine 10.5 mg/body weight kg+eicosapentaenoic acid 300 mg/body weight kg equivalent
After the completion of ingestion of the evaluation liquid (21 days after gonitis inducing agent administration), rats were fasted for 17 hours, and the body weight, gastrocnemius weight of the right foot and the left foot, liver weight and weight of fat around epididymis of each group were measured.

[4] = system: rat having hypersensitive pain induced by gonitis inducing agent (Zymosan); assay: Von Frey test in rat having hypersensitive pain induced by gonitis inducing agent (Zymosan) (Experimental Example 2); assay type: in vivo; conditions: SD rat, Zymosan 2 mg right knee; oral once per day; L-serine 10.5 mg/kg, EPA 300 mg/kg equivalent; 7 and 14 days; right and left foot; 4 g, 8 g, 15 g
Experimental: as §1, §2
Von Frey test was performed at 7 days and 14 days after the gonitis inducing agent administration. […] The ratio (%) of the number of pain response relative to the number (5 times) of filament pressing was calculated at each stimulation intensity.

**Q.** Which “relieving effect on peripheral neuropathic pain due to anticancer agents and diabetes” value [1] does the source give for `N[C@@H](CO)C(=O)O` [L-serine] here?
**A.** Its value is “partial”.

**Q.** And the “number of pain response (Von Frey test) as compared to 1B group” value [2]?
**A.** Its value is “slightly decreased”.

**Q.** And the “gastrocnemius weight of the right foot, comparison in 2C group to 2E group” value ([3]; after 17 h fasting)?
**A.** The value was “lowest”.

**Q.** What about the “difference in the gastrocnemius weight of both feet, comparison among 2C group to 2E group” value [3] of the same compound?
**A.** The value was “largest”.

**Q.** And the “number of pain response (Von Frey test) as compared to 2B group” value [4]?
**A.** Its value is “slightly decreased”.
